According to PubChem BioAssay (NCI):
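Exposure lasted 48 hours, with cells grown in 96-well plates and compounds tested at five concentrations. TGI: concentration producing complete growth inhibition.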

Columns and labels:
Experiment in all cases: NCI tumour cell line growth inhibition, 48 h
[1] = test system: MCF7 breast
[2] = test system: MDA-N
[3] = test system: OVCAR-8 ovarian
[4] = test system: NCI/ADR-RES ovarian
[5] = test system: UACC-62 melanoma
[6] = test system: HCT-116 colon
[7] = test system: A498 renal
[8] = test system: BT-549 breast
[9] = test system: M14 melanoma
[10] = test system: SN12C renal
[11] = test system: 786-0 renal
[12] = test system: HOP-92 NSCLC
[13] = test system: NCI-H522 lung
[14] = test system: NCI-H460 lung
[15] = test system: T-47D breast
[16] = test system: EKVX NSCLC
[17] = test system: HT29 colon
[18] = test system: HCC-2998 colon
[19] = test system: SF-539 CNS
[20] = test system: RPMI-8226 leukemia
[21] = test system: IGROV1 ovarian
[22] = test system: SK-MEL-5 melanoma
[23] = test system: A549 NSCLC
[24] = test system: UO-31 renal
[25] = test system: SR leukemia
[26] = test system: MDA-MB-435
[27] = test system: SNB-19 CNS
[28] = test system: NCI-H23 lung
[29] = test system: SF-295 CNS
[30] = test system: KM12 colon
[31] = test system: SNB-75 CNS
[32] = test system: HOP-62 NSCLC
[33] = test system: CAKI-1 renal
[34] = test system: MOLT-4 leukemia
[35] = test system: SK-MEL-28 melanoma
[36] = test system: COLO 205 colon
[37] = test system: OVCAR-3 ovarian
[38] = test system: LOX IMVI melanoma
[39] = test system: SF-268 CNS
[40] = test system: RXF 393 renal
[41] = test system: MALME-3M melanoma
[42] = test system: SW-620 colon
[43] = test system: HCT-15 colon
[44] = test system: HL-60(TB) leukemia
[45] = test system: TK-10 renal
[46] = test system: DU-145 prostate
[47] = test system: HS 578T breast
[48] = test system: PC-3 prostate
[49] = test system: OVCAR-4 ovarian
[50] = test system: MDA-MB-231 breast
[51] = test system: K-562 leukemia
[52] = test system: CCRF-CEM leukemia
[53] = test system: OVCAR-5 ovarian
[54] = test system: UACC-257 melanoma
[55] = test system: U251 CNS
[56] = test system: ACHN renal
[57] = test system: SK-MEL-2 melanoma
[58] = test system: SK-OV-3 ovarian
[59] = test system: NCI-H226 lung

For CC1=NN(C(=O)CC(=O)Nc2ccccc2)C(=O)C1N=Nc1ccc(C(=O)O)cc1 (centres undefined), which TGI [1] is on record?
The TGI was greater than 100 µM.

And the TGI [2]?
The TGI was greater than 100 µM.

And the TGI [3]?
Its TGI is greater than 100 µM.

What about the TGI [4] of the same molecule?
Its TGI is greater than 100 µM.

And the TGI [5]?
Its TGI is greater than 100 µM.

And the TGI [6]?
Its TGI is greater than 100 µM.

And the TGI [7]?
Its TGI is greater than 100 µM.

And the TGI [8]?
Its TGI is greater than 100 µM.

And the TGI [9]?
Its TGI is greater than 100 µM.

And the TGI [10]?
The TGI was greater than 100 µM.

And the TGI [11]?
The TGI was greater than 100 µM.

What about the TGI [12] of the same molecule?
Its TGI is 87.1 µM.

What about the TGI [13] of the same molecule?
The TGI was greater than 100 µM.

And the TGI [14]?
Its TGI is greater than 100 µM.

And the TGI [15]?
Its TGI is greater than 100 µM.

What about the TGI [16] of the same molecule?
The TGI was greater than 100 µM.

And the TGI [17]?
Its TGI is greater than 100 µM.

What about the TGI [18] of the same molecule?
Its TGI is greater than 100 µM.

What about the TGI [19] of the same molecule?
Its TGI is greater than 100 µM.

And the TGI [20]?
The TGI was greater than 100 µM.

And the TGI [21]?
Its TGI is greater than 100 µM.

What about the TGI [22] of the same molecule?
Its TGI is greater than 100 µM.

What about the TGI [23] of the same molecule?
The TGI was greater than 100 µM.

And the TGI [24]?
Its TGI is greater than 100 µM.

And the TGI [25]?
The TGI was greater than 100 µM.

What about the TGI [26] of the same molecule?
The TGI was greater than 100 µM.

And the TGI [27]?
Its TGI is greater than 100 µM.

And the TGI [28]?
Its TGI is greater than 100 µM.

And the TGI [29]?
Its TGI is greater than 100 µM.

What about the TGI [30] of the same molecule?
The TGI was greater than 100 µM.

And the TGI [31]?
The TGI was greater than 100 µM.

What about the TGI [32] of the same molecule?
The TGI was greater than 100 µM.

And the TGI [33]?
Its TGI is greater than 100 µM.

What about the TGI [34] of the same molecule?
The TGI was greater than 100 µM.

And the TGI [35]?
The TGI was greater than 100 µM.

What about the TGI [36] of the same molecule?
The TGI was greater than 100 µM.

And the TGI [37]?
The TGI was greater than 100 µM.

What about the TGI [38] of the same molecule?
Its TGI is greater than 100 µM.

What about the TGI [39] of the same molecule?
Its TGI is greater than 100 µM.

What about the TGI [40] of the same molecule?
The TGI was greater than 100 µM.

What about the TGI [41] of the same molecule?
The TGI was greater than 100 µM.

And the TGI [42]?
Its TGI is greater than 100 µM.

What about the TGI [43] of the same molecule?
Its TGI is greater than 100 µM.

And the TGI [44]?
Its TGI is greater than 100 µM.

And the TGI [45]?
The TGI was greater than 100 µM.

And the TGI [46]?
The TGI was greater than 100 µM.

And the TGI [47]?
The TGI was greater than 100 µM.

What about the TGI [48] of the same molecule?
Its TGI is greater than 100 µM.

What about the TGI [49] of the same molecule?
Its TGI is greater than 100 µM.

What about the TGI [50] of the same molecule?
Its TGI is greater than 100 µM.

And the TGI [51]?
The TGI was greater than 100 µM.

And the TGI [52]?
The TGI was greater than 100 µM.

And the TGI [53]?
The TGI was greater than 100 µM.

What about the TGI [54] of the same molecule?
Its TGI is greater than 100 µM.

What about the TGI [55] of the same molecule?
Its TGI is greater than 100 µM.

And the TGI [56]?
The TGI was greater than 100 µM.

And the TGI [57]?
Its TGI is greater than 100 µM.

Which results are given for O=C1O/C(=C\c2ccc(O)c(Br)c2)C(c2ccc(O)c(Cl)c2)=C1Br?
TGI [1]: 34.6 µM; TGI [2]: 64.9 µM; TGI [3]: 90 µM; TGI [4]: 75.7 µM; TGI [5]: 31.6 µM; TGI [6]: 26.5 µM; TGI [7]: 37.3 µM; TGI [8]: 63.1 µM; TGI [9]: 36.5 µM; TGI [10]: 86.4 µM; TGI [11]: 40.2 µM; TGI [12]: 35.7 µM; TGI [13]: 28.6 µM; TGI [14]: 48.4 µM; TGI [15]: 47 µM; TGI [16]: 49.3 µM; TGI [17]: 25.5 µM; TGI [58]: 40.9 µM; TGI [18]: 16.7 µM; TGI [19]: 44 µM; TGI [20]: 38.6 µM; TGI [21]: 47.2 µM; TGI [22]: 29.8 µM; TGI [23]: > 100 µM; TGI [24]: 77.4 µM; TGI [25]: 28.1 µM; TGI [26]: 46.5 µM; TGI [27]: 66.5 µM; TGI [28]: 54.1 µM; TGI [29]: 30.4 µM; TGI [30]: 31.2 µM; TGI [32]: 40.9 µM; TGI [33]: 75.2 µM; TGI [34]: > 100 µM; TGI [35]: 32 µM; TGI [36]: 32 µM; TGI [37]: 33.7 µM; TGI [38]: 71.9 µM; TGI [39]: 33.7 µM; TGI [40]: 40.9 µM; TGI [41]: 37.3 µM; TGI [42]: 34.1 µM; TGI [43]: 25.3 µM; TGI [44]: > 100 µM; TGI [45]: 48.3 µM; TGI [46]: 43 µM; TGI [47]: 70.9 µM; TGI [48]: 32.7 µM; TGI [49]: 25.8 µM; TGI [50]: > 100 µM; TGI [51]: 58.5 µM; TGI [52]: 51.1 µM; TGI [53]: 33.4 µM; TGI [54]: 33.3 µM; TGI [55]: 29.8 µM; TGI [56]: 33.2 µM; TGI [57]: 39.2 µM

Which TGI [1] does the source give for Nc1ccc(I)cn1 here?
Its TGI is greater than 100 µM.

What about the TGI [2] of the same molecule?
The TGI was greater than 100 µM.

What about the TGI [3] of the same molecule?
The TGI was greater than 100 µM.

What about the TGI [4] of the same molecule?
The TGI was greater than 100 µM.

And the TGI [5]?
Its TGI is greater than 100 µM.

What about the TGI [6] of the same molecule?
Its TGI is greater than 100 µM.

And the TGI [59]?
Its TGI is greater than 100 µM.

And the TGI [7]?
The TGI was greater than 100 µM.

What about the TGI [8] of the same molecule?
The TGI was greater than 100 µM.

And the TGI [9]?
Its TGI is greater than 100 µM.

And the TGI [10]?
Its TGI is greater than 100 µM.

And the TGI [11]?
The TGI was greater than 100 µM.

What about the TGI [13] of the same molecule?
The TGI was greater than 100 µM.

And the TGI [14]?
Its TGI is greater than 100 µM.

What about the TGI [15] of the same molecule?
Its TGI is greater than 100 µM.

What about the TGI [16] of the same molecule?
Its TGI is greater than 100 µM.

What about the TGI [17] of the same molecule?
Its TGI is greater than 100 µM.

And the TGI [58]?
The TGI was greater than 100 µM.

What about the TGI [18] of the same molecule?
Its TGI is greater than 100 µM.

What about the TGI [20] of the same molecule?
Its TGI is greater than 100 µM.

And the TGI [21]?
Its TGI is greater than 100 µM.

What about the TGI [22] of the same molecule?
Its TGI is greater than 100 µM.

What about the TGI [23] of the same molecule?
Its TGI is greater than 100 µM.

And the TGI [24]?
Its TGI is greater than 100 µM.

What about the TGI [25] of the same molecule?
The TGI was greater than 100 µM.

What about the TGI [26] of the same molecule?
Its TGI is greater than 100 µM.

What about the TGI [27] of the same molecule?
The TGI was greater than 100 µM.

And the TGI [28]?
The TGI was greater than 100 µM.

What about the TGI [29] of the same molecule?
The TGI was greater than 100 µM.

What about the TGI [30] of the same molecule?
The TGI was greater than 100 µM.

What about the TGI [31] of the same molecule?
The TGI was greater than 100 µM.

What about the TGI [32] of the same molecule?
The TGI was greater than 100 µM.

What about the TGI [33] of the same molecule?
Its TGI is greater than 100 µM.

And the TGI [34]?
Its TGI is greater than 100 µM.

What about the TGI [35] of the same molecule?
The TGI was greater than 100 µM.

And the TGI [36]?
The TGI was greater than 100 µM.

What about the TGI [37] of the same molecule?
Its TGI is greater than 100 µM.

What about the TGI [38] of the same molecule?
Its TGI is greater than 100 µM.

And the TGI [39]?
Its TGI is greater than 100 µM.

What about the TGI [40] of the same molecule?
Its TGI is greater than 100 µM.

What about the TGI [41] of the same molecule?
The TGI was greater than 100 µM.

What about the TGI [42] of the same molecule?
Its TGI is greater than 100 µM.

What about the TGI [43] of the same molecule?
The TGI was greater than 100 µM.

What about the TGI [44] of the same molecule?
The TGI was greater than 100 µM.

And the TGI [46]?
Its TGI is greater than 100 µM.

And the TGI [47]?
Its TGI is greater than 100 µM.

And the TGI [48]?
The TGI was greater than 100 µM.

And the TGI [49]?
The TGI was greater than 100 µM.

And the TGI [50]?
Its TGI is greater than 100 µM.

What about the TGI [51] of the same molecule?
The TGI was greater than 100 µM.

And the TGI [52]?
Its TGI is greater than 100 µM.

What about the TGI [53] of the same molecule?
Its TGI is greater than 100 µM.

What about the TGI [55] of the same molecule?
Its TGI is greater than 100 µM.

And the TGI [56]?
Its TGI is greater than 100 µM.

What about the TGI [57] of the same molecule?
Its TGI is greater than 100 µM.
